# Assay results from patent publication US20130143969A1 (THE OHIO STATE UNIVERSITY, priority 2010, published 2013).
# How the values were obtained:
# in vivo = settings: for AUC as % curcumin (relative percentage): oral 1.8 g/kg curcumin gel; for AUC: oral 1.8 g/kg curcumin gel in 66.7% PEG 600 + 33.3% Cremophor EL; for concentration at 10 min / concentration at 20 min / concentration at 30 min / concentration at 45 min / concentration at 60 min / concentration at 90 min / concentration at 120 min / concentration at 240 min / concentration at 480 min: CD2F1, mouse, in vivo
# Description: Extracts of bio-matrices were subjected to HPLC mass spectrometric analysis.
# [1] = tested on: p15^INK4B promoter region; assay: DNA methylation analysis of the p15INK4B promoter region (LC-MS/MS); format: cell-based; settings: MV4-11 cells, decitabine 2.5 μM, 72 hours
# Method: Genomic DNA isolated from MV4-11 cells was treated with bisulfite using the Epi methylation Kit (Qiagen, Minneapolis, Minn.) according to the instruction from the manufacturer and followed by PCR amplification as follows. The sequences of p15^INK4B primers were: forward 5′-GGGAGGGTAATGAAGTTGAGTTTA-3′ (SEQ ID NO. 1), and reverse 5′-ACCCTAAAACCCCAACTACCTAAAT-3′ (SEQ ID NO. 2). PCR amplifications were performed as follows: 95° C. for 5.5 min, 55° C. for 30s for 5 cycles, and 52° C. for 30 s for 38 cycles, 72° C. for 30s for 38 cycles, with a final step at 72° C. for 1 min. PCRs were carried out in a 100 μl volume containing 10 μl of buffer (10×), 2 μL of each primer (10 μM), 2 μL of (10 mM) dNTPs, 2 U of Platinum Taq DNA polymerase (Invitrogen, Carlsbad, Calif.), 70.6 μL ddH2O and 10 μL of bisulfite treated DNA in a GeneAmp 9700 thermal cycler (Perkin-Elmer, Norwalk, Conn.). PCR products were purified using QIAquick columns and eluted in water. A 500 ng aliquot of the PCR product was incubated with 25 UM. […] Fully methylated PCR products were purified using the QIAquick PCR Purification kit (Qiagen, Minneapolis, Minn.), according to the manufacturer's instructions and 200 ng of the purified DNA was hydrolyzed and the concentrations of 5mdC and 2dC in the hydrolysate were measured by LC-MS/MS using the conditions as described previously.
# MV4-11 cells = assay: Cell cycle distribution by flow cytometry; format: cell-based; settings: 2.5 μM decitabine
# Method: (§1) Cell Cycle and Apoptosis Analysis: MV4-11, ML-1, HL-60 and K562 leukemia cell lines were cultured in RPMI medium (VWR International, Inc., West Chester, Pa.) supplemented with 10% fetal bovine serum (Invitrogen, Carlsbad, Calif.) and 1% (v/v) penicillin/streptomycin (Invitrogen Life Technologies; Carlsbad, Calif.) antibiotic solution at 37° C. in an incubator under 5% CO2 atmosphere. For the ex-vivo studies, mononuclear cells obtained from bone marrow (BM) of patient with AML were prepared by Ficoll-Hypaque (Nygaard) gradient centrifugation and cultured with serum-free expansion medium (SFEM) (StemCell technologies, Vancouver, BC) supplemented with GM-CSF (50 ng/ml), IL-3 (20 ng/ml), IL-6 (20 ng/ml) and SCF ([…]). […] The cell cycle and apoptosis of MV4-11 cells was analyzed on a BD FACS Calibur (Beckman Coulter, Fullerton, Calif.) according to the standard protocol provided by the manufacturer.
# p15^INK4B = assay: Quantitative RT-PCR of p15INK4B mRNA in leukemia cells; format: cell-based; settings: MV4-11 cells, decitabine 2.5 μM, 72 hours
# Method: as §1
# Quantitative RT-PCR was used to quantify the mRNA levels of DNMT1, DNMT3a, DNMT3b, p15INK4B and p21. Total RNA was extracted with Trizol reagent (Invitrogen, Carlsbad, Calif.) and reverse transcribed by reverse transcriptase (Invitrogen). Quantitative real-time PCR reactions were performed in triplicate using Taqman gene expression assay (Applied Biosystems) with an ABI prism 7700 detector (Applied Biosystems). The target gene values were normalized to the values of internal control GAPDH or 18 S, and expressed as relative percent change (100×2^(˜ΔΔCt)) over non-treated samples.
# [2] = mouse, oral 1.8 g/kg curcumin in 66.7% PEG 600 + 33.3% Cremophor EL, 1440 min
Molecule,AUC as % curcumin (relative percentage) (in vivo; mouse),AUC (in vivo; mouse),plasma level (in vivo; [2]),"plasma level (in vivo; same dosing, 10 min)","plasma level (in vivo; same dosing, 20 min)","plasma level (in vivo; same dosing, 30 min)","plasma level (in vivo; same dosing, 45 min)","plasma level (in vivo; same dosing, 60 min)","plasma level (in vivo; same dosing, 90 min)","plasma level (in vivo; same dosing, 120 min)","plasma level (in vivo; same dosing, 480 min)",concentration at 10 min (in vivo),concentration at 20 min (in vivo),concentration at 30 min (in vivo),concentration at 45 min (in vivo),concentration at 60 min (in vivo),concentration at 90 min (in vivo),concentration at 120 min (in vivo),concentration at 240 min (in vivo),concentration at 480 min (in vivo),also measured
"COc1cc(/C=C/C(=O)CC(=O)/C=C/c2ccc(O[C@@H]3O[C@H](C(=O)O)[C@@H](O)[C@H](O)[C@H]3O)c(OC)c2)ccc1O [GLU, curcumin O-monoglucuronide]",382.0%,1863.2 µM·min,24.2129 ng/mL,3083.366 ng/mL,4428.71 ng/mL,5469.386 ng/mL,2539.161 ng/mL,2057.704 ng/mL,1336.072 ng/mL,1070.25 ng/mL,716.5084 ng/mL,–,–,–,–,–,–,–,–,–,–
"O=C(/C=C/c1ccc(O)cc1)CC(=O)/C=C/c1ccc(O)cc1 [BDMO, bisdesmethoxycurcumin]",–,–,–,–,–,–,–,–,–,–,–,65.7 ng/mL,115 ng/mL,51.4 ng/mL,66.9 ng/mL,37.3 ng/mL,11.1 ng/mL,15.4 ng/mL,34.5 ng/mL,10.9 ng/mL,–
"COc1cc(/C=C/C(O)=C/C(=O)/C=C/c2ccc(O)cc2)ccc1O [DMO, desmethoxycurcumin]",–,–,–,–,–,–,–,–,–,–,–,148 ng/mL,224 ng/mL,108 ng/mL,118 ng/mL,76.5 ng/mL,29.1 ng/mL,39.5 ng/mL,40.4 ng/mL,15.4 ng/mL,–
"COc1cc(CCC(=O)CC(=O)CCc2ccc(O)c(OC)c2)ccc1O [THC, tetrahydrocurcumin]",7.9%,38.29 µM·min,2.239 ng/mL,112.6977 ng/mL,238.2446 ng/mL,219.0996 ng/mL,62.5 ng/mL,39.23 ng/mL,6.038 ng/mL,8.631 ng/mL,4.672 ng/mL,–,–,–,–,–,–,–,–,–,"plasma level (in vivo; same dosing, 240 min): 8.173 ng/mL"
curcumin O-sulfate,3.3%,16.2 µM·min,0 ng/mL,29.44 ng/mL,54.83 ng/mL,43.06 ng/mL,27.51 ng/mL,18.75 ng/mL,8.637 ng/mL,7.752 ng/mL,4.05 ng/mL,–,–,–,–,–,–,–,–,–,"plasma level (in vivo; same dosing, 240 min): 9.949 ng/mL"
"Nc1ncn([C@H]2C[C@H](O)[C@@H](CO)O2)c(=O)n1 [decitabine, Decitabine]",–,–,–,–,–,–,–,–,–,–,–,–,–,–,–,–,–,–,–,–,decrease of p15INK4B promoter methylation level [1]: ~25%; cell population in G0/G1 phase (MV4-11 cells): 49.4%; cell population in G2/M phase (MV4-11 cells): 11.7%; cell population in S phase (MV4-11 cells): 26.2%; cell population in SubG1 phase (MV4-11 cells): 13.2%; increase of p15INK4B expression level (p15^INK4B): ~4 fold
